Tests used:
[1] = test system: blackgrass; experiment: Test Example 4: herbicidal effect by soil treatment (Table 19, symbol J); format: in vivo, blackgrass (Alopecurus myosuroides); conditions: amount of applied herbicide 320 g/ha
Method in brief: (§1)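 Pre-emergence style soil spray: seeds under ~1.5 cm sterilized diluvial soil received a uniform coat of emulsion diluted to the predetermined herbicide amount. Greenhouse 25–30° C; readout at week three on previously defined criteria.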

[2] = test system: barnyard grass; experiment: Test Example 5: herbicidal effect by foliage application, plastic box (Table 20, symbol H); format: in vivo, barnyard grass (Echinochloa crus-galli); conditions: 320 g/ha, evaluated three weeks after application
Method in brief: (§2)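 Plants were sown into sterilized diluvial soil under about 1.5 cm cover and kept in a greenhouse at 25° C. to 30° C. Fourteen days on, foliage received an even spray of the diluted emulsion. Herbicidal or crop effect was judged three weeks afterwards.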

[3] = test system: blackgrass; experiment: Test Example 5: herbicidal effect by foliage application, plastic box (Table 20, symbol J); format: in vivo, blackgrass (Alopecurus myosuroides); conditions: 320 g/ha, evaluated three weeks after application
Method in brief: as §2

[4] = test system: persian speedwell; experiment: Test Example 5: herbicidal effect by foliage application, plastic box (Table 20, symbol R); format: in vivo, Persian speedwell (Veronica persica); conditions: 320 g/ha, evaluated three weeks after application
Method in brief: as §2

[5] = test system: persian speedwell; experiment: Test Example 4: herbicidal effect by soil treatment (Table 19, symbol R); format: in vivo, Persian speedwell (Veronica persica); conditions: amount of applied herbicide 320 g/ha
Method in brief: as §1

[6] = test system: wild oat; experiment: Test Example 4: herbicidal effect by soil treatment (Table 19, symbol I); format: in vivo, wild oat (Avena fatua); conditions: amount of applied herbicide 320 g/ha
Method in brief: as §1

[7] = test system: barnyard grass; experiment: Test Example 3: herbicidal effect by foliage application, Wagner pot (Table 18, symbol H); format: in vivo, barnyard grass (Echinochloa crus-galli)
Method in brief: (§3)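 Plants were sown in alluvial soil held under 0.1–0.5 cm standing water and grown 14 days in a greenhouse at 25–30 °C. An emulsifiable formulation, water-diluted to the set dose, was then sprayed onto the foliage, and effects were scored three weeks later using previously defined criteria.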

[8] = test system: redroot pigweed; experiment: Test Example 5: herbicidal effect by foliage application, plastic box (Table 20, symbol N); format: in vivo, redroot pigweed (Amaranthus retroflexus); conditions: 320 g/ha, evaluated three weeks after application
Method in brief: as §2

[9] = test system: barnyard grass; experiment: Test Example 4: herbicidal effect by soil treatment (Table 19, symbol H); format: in vivo, barnyard grass (Echinochloa crus-galli); conditions: amount of applied herbicide 320 g/ha
Method in brief: as §1

[10] = test system: windgrass; experiment: Test Example 4: herbicidal effect by soil treatment (Table 19, symbol L); format: in vivo, windgrass (Apera spica-venti); conditions: amount of applied herbicide 320 g/ha
Method in brief: as §1

[11] = test system: green foxtail; experiment: Test Example 5: herbicidal effect by foliage application, plastic box (Table 20, symbol G); format: in vivo, green foxtail (Setaria viridis); conditions: 320 g/ha, evaluated three weeks after application
Method in brief: as §2

[12] = test system: redroot pigweed; experiment: Test Example 4: herbicidal effect by soil treatment (Table 19, symbol N); format: in vivo, redroot pigweed (Amaranthus retroflexus); conditions: amount of applied herbicide 320 g/ha
Method in brief: as §1

[13] = test system: lambsquarters; experiment: Test Example 4: herbicidal effect by soil treatment (Table 19, symbol O); format: in vivo, lambsquarters (Chenopodium album); conditions: amount of applied herbicide 320 g/ha
Method in brief: as §1

[14] = test system: wild oat; experiment: Test Example 5: herbicidal effect by foliage application, plastic box (Table 20, symbol I); format: in vivo, wild oat (Avena fatua); conditions: 320 g/ha, evaluated three weeks after application
Method in brief: as §2

[15] = test system: velvetleaf; experiment: Test Example 4: herbicidal effect by soil treatment (Table 19, symbol M); format: in vivo, velvetleaf (Abutilon theophrasti); conditions: amount of applied herbicide 320 g/ha
Method in brief: as §1

[16] = test system: southern crabgrass; experiment: Test Example 5: herbicidal effect by foliage application, plastic box (Table 20, symbol F); format: in vivo, southern crabgrass (Digitaria ciliaris); conditions: 320 g/ha, evaluated three weeks after application
Method in brief: as §2

[17] = test system: chickweed; experiment: Test Example 5: herbicidal effect by foliage application, plastic box (Table 20, symbol P); format: in vivo, common chickweed (Stellaria media); conditions: 320 g/ha, evaluated three weeks after application
Method in brief: as §2

[18] = test system: rice flat sedge; experiment: Test Example 3: herbicidal effect by foliage application, Wagner pot (Table 18, symbol E); format: in vivo, rice flat sedge (Cyperus iria)
Method in brief: as §3

[19] = test system: velvetleaf; experiment: Test Example 5: herbicidal effect by foliage application, plastic box (Table 20, symbol M); format: in vivo, velvetleaf (Abutilon theophrasti); conditions: 320 g/ha, evaluated three weeks after application
Method in brief: as §2

[20] = test system: chickweed; experiment: Test Example 4: herbicidal effect by soil treatment (Table 19, symbol P); format: in vivo, common chickweed (Stellaria media); conditions: amount of applied herbicide 320 g/ha
Method in brief: as §1

[21] = test system: lambsquarters; experiment: Test Example 5: herbicidal effect by foliage application, plastic box (Table 20, symbol O); format: in vivo, lambsquarters (Chenopodium album); conditions: 320 g/ha, evaluated three weeks after application
Method in brief: as §2

[22] = test system: Italian ryegrass; experiment: Test Example 5: herbicidal effect by foliage application, plastic box (Table 20, symbol K); format: in vivo, Italian ryegrass (Lolium multiflorum); conditions: 320 g/ha, evaluated three weeks after application
Method in brief: as §2

[23] = test system: Chinese sprangletop; experiment: Test Example 3: herbicidal effect by foliage application, Wagner pot (Table 18, symbol D); format: in vivo, chinese sprangletop (Leptochloa chinensis)
Method in brief: as §3

[24] = test system: Italian ryegrass; experiment: Test Example 4: herbicidal effect by soil treatment (Table 19, symbol K); format: in vivo, Italian ryegrass (Lolium multiflorum); conditions: amount of applied herbicide 320 g/ha
Method in brief: as §1

[25] = test system: green foxtail; experiment: Test Example 4: herbicidal effect by soil treatment (Table 19, symbol G); format: in vivo, green foxtail (Setaria viridis); conditions: amount of applied herbicide 320 g/ha
Method in brief: as §1

[26] = test system: southern crabgrass; experiment: Test Example 4: herbicidal effect by soil treatment (Table 19, symbol F); format: in vivo, southern crabgrass (Digitaria ciliaris); conditions: amount of applied herbicide 320 g/ha
Method in brief: as §1

[27] = foliage application after 14-day growth
[28] = amount of applied herbicide 320 g/ha

In the case of Cc1nn(C)c(=O)c(-c2c(-c3ccc(Cl)cc3)sc3c(F)cccc23)c1O [4-040], the “Herbicidal effect by soil treatment, J: blackgrass” value [1] is reported as 0 (Herbicidal rate of 5% or less (almost no effect)), the “herbicidal effect on H: barnyard grass (evaluation grade 0-5)” value [2, 27] is reported as 3 (Herbicidal rate of 40% or more and less than 70%) and the “herbicidal effect on J: blackgrass (evaluation grade 0-5)” value [3, 27] is reported as 3 (Herbicidal rate of 40% or more and less than 70%). The “herbicidal effect on R: persian speedwell (evaluation grade 0-5)” value [4, 27] was 5 (Herbicidal rate of 90% or more (almost completely withered)), the “Herbicidal effect by soil treatment, R: persian speedwell” value [5] was 4 (Herbicidal rate of 70% or more and less than 90%) and the “Herbicidal effect by soil treatment, I: wild oat” value [6] was 0 (Herbicidal rate of 5% or less (almost no effect)). For the same compound, the “herbicidal effect on barnyard grass (H)” value ([7]; 320 g/ha) was 5 (Herbicidal rate of 90% or more (almost completely withered)), the “herbicidal effect on N: redroot pigweed (evaluation grade 0-5)” value [8, 27] was 5 (Herbicidal rate of 90% or more (almost completely withered)) and the “Herbicidal effect by soil treatment, H: barnyard grass” value [9] was 0 (Herbicidal rate of 5% or less (almost no effect)). For the same compound, the “Herbicidal effect by soil treatment, L: windgrass” value [10] was 0 (Herbicidal rate of 5% or less (almost no effect)), the “herbicidal effect on G: green foxtail (evaluation grade 0-5)” value [11, 27] was 4 (Herbicidal rate of 70% or more and less than 90%) and the “Herbicidal effect by soil treatment, N: redroot pigweed” value [12] was 3 (Herbicidal rate of 40% or more and less than 70%). The “Herbicidal effect by soil treatment, O: lambsquarters” value [13] was 3 (Herbicidal rate of 40% or more and less than 70%), the “herbicidal effect on I: wild oat (evaluation grade 0-5)” value [14, 27] was 0 (Herbicidal rate of 5% or less (almost no effect)) and the “Herbicidal effect by soil treatment, M: velvetleaf” value [15] was 0 (Herbicidal rate of 5% or less (almost no effect)). For the same compound, the “herbicidal effect on F: southern crabgrass (evaluation grade 0-5)” value [16, 27] was 0 (Herbicidal rate of 5% or less (almost no effect)), the “herbicidal effect on P: chickweed (evaluation grade 0-5)” value [17, 27] was 5 (Herbicidal rate of 90% or more (almost completely withered)) and the “herbicidal effect on rice flat sedge (E)” value ([18]; 320 g/ha) was 5 (Herbicidal rate of 90% or more (almost completely withered)). The “herbicidal effect on M: velvetleaf (evaluation grade 0-5)” value [19, 27] was 4 (Herbicidal rate of 70% or more and less than 90%), the “Herbicidal effect by soil treatment, P: chickweed” value [20] was 1 (Herbicidal rate of 5% or more and less than 20%) and the “herbicidal effect on O: lambsquarters (evaluation grade 0-5)” value [21, 27] was 3 (Herbicidal rate of 40% or more and less than 70%). The “herbicidal effect on K: Italian ryegrass (evaluation grade 0-5)” value [22, 27] was 4 (Herbicidal rate of 70% or more and less than 90%), the “herbicidal effect on Chinese sprangletop (D)” value ([23]; 320 g/ha) was 4 (Herbicidal rate of 70% or more and less than 90%) and the “Herbicidal effect by soil treatment, K: Italian ryegrass” value [24] was 2 (Herbicidal rate of 20% or more and less than 40%). For the same compound, the “Herbicidal effect by soil treatment, G: green foxtail” value [25] was 0 (Herbicidal rate of 5% or less (almost no effect)) and the “Herbicidal effect by soil treatment, F: southern crabgrass” value [26] was 0 (Herbicidal rate of 5% or less (almost no effect)).

For COc1cccc(-c2sc3ccc(F)cc3c2-c2c(O)c(C)nn(C)c2=O)c1 [2-209], the “J: blackgrass, herbicidal effect rating” value [1] was 0 (Herbicidal rate of 5% or less (almost no effect)), the “herbicidal effect on H: barnyard grass (criteria 0-5)” value ([2]; foliage application) was 5 (Herbicidal rate of 90% or more (almost completely withered)) and the “herbicidal effect on J: blackgrass (criteria 0-5)” value ([3]; foliage application) was 4 (Herbicidal rate of 70% or more and less than 90%). For the same compound, the “herbicidal effect on R: persian speedwell (criteria 0-5)” value ([4]; foliage application) was 5 (Herbicidal rate of 90% or more (almost completely withered)), the “R: persian speedwell, herbicidal effect rating” value [5] was 1 (Herbicidal rate of 5% or more and less than 20%) and the “I: wild oat, herbicidal effect rating” value [6] was 0 (Herbicidal rate of 5% or less (almost no effect)). For the same compound, the “herbicidal effect on H: barnyard grass” value [7, 28] was 5 (Herbicidal rate of 90% or more (almost completely withered)), the “herbicidal effect on N: redroot pigweed (criteria 0-5)” value ([8]; foliage application) was 5 (Herbicidal rate of 90% or more (almost completely withered)) and the “H: barnyard grass, herbicidal effect rating” value [9] was 4 (Herbicidal rate of 70% or more and less than 90%). For the same compound, the “L: windgrass, herbicidal effect rating” value [10] was 0 (Herbicidal rate of 5% or less (almost no effect)), the “herbicidal effect on G: green foxtail (criteria 0-5)” value ([11]; foliage application) was 5 (Herbicidal rate of 90% or more (almost completely withered)) and the “N: redroot pigweed, herbicidal effect rating” value [12] was 4 (Herbicidal rate of 70% or more and less than 90%). The “O: lambsquarters, herbicidal effect rating” value [13] was 5 (Herbicidal rate of 90% or more (almost completely withered)), the “herbicidal effect on I: wild oat (criteria 0-5)” value ([14]; foliage application) was 0 (Herbicidal rate of 5% or less (almost no effect)) and the “M: velvetleaf, herbicidal effect rating” value [15] was 2 (Herbicidal rate of 20% or more and less than 40%). The “herbicidal effect on F: southern crabgrass (criteria 0-5)” value ([16]; foliage application) was 5 (Herbicidal rate of 90% or more (almost completely withered)), the “herbicidal effect on P: chickweed (criteria 0-5)” value ([17]; foliage application) was 5 (Herbicidal rate of 90% or more (almost completely withered)) and the “herbicidal effect on E: rice flat sedge” value [18, 28] was 5 (Herbicidal rate of 90% or more (almost completely withered)). The “herbicidal effect on M: velvetleaf (criteria 0-5)” value ([19]; foliage application) was 4 (Herbicidal rate of 70% or more and less than 90%), the “P: chickweed, herbicidal effect rating” value [20] was 4 (Herbicidal rate of 70% or more and less than 90%) and the “herbicidal effect on O: lambsquarters (criteria 0-5)” value ([21]; foliage application) was 4 (Herbicidal rate of 70% or more and less than 90%). For the same compound, the “herbicidal effect on K: Italian ryegrass (criteria 0-5)” value ([22]; foliage application) was 4 (Herbicidal rate of 70% or more and less than 90%), the “herbicidal effect on D: Chinese sprangletop” value [23, 28] was 4 (Herbicidal rate of 70% or more and less than 90%) and the “K: Italian ryegrass, herbicidal effect rating” value [24] was 2 (Herbicidal rate of 20% or more and less than 40%). For the same compound, the “G: green foxtail, herbicidal effect rating” value [25] was 5 (Herbicidal rate of 90% or more (almost completely withered)) and the “F: southern crabgrass, herbicidal effect rating” value [26] was 5 (Herbicidal rate of 90% or more (almost completely withered)).

Source: patent publication US20230085307A1, “PYRIDAZINONE COMPOUND AND HERBICIDE” (NISSAN CHEMICAL CORPORATION, priority 2019, published 2023)
